According to patent publication US20190290621A1, “COMPOSITIONS AND METHODS FOR TREATING HIV-1 LATENCY” (priority 2017, published 2019):

What was measured:
Class I HDAC = test: Western blot for acetylated histone H3 as a measure of Class I HDAC inhibition; format: cell-based; conditions: Jurkat cells and primary resting CD4+ T-cells, 8 hours
Class II HDAC = test: Western blot for acetylated tubulin as a measure of Class II HDAC inhibition; format: cell-based; conditions: Jurkat cells and primary resting CD4+ T-cells, 8 hours
[1] = mice; cited from earlier work
HIV-1 LTR = test: ChIP assay of acetylated histone H3 at the HIV-1 LTR; format: cell-based; conditions: JLAT10.6 cells, 6 hours, HIV-1 LTR qPCR
Procedure: Since histone H3 is […] by Class I HDACs and known to bind to the HIV LTR promoter, we determined H3 acetylation status of the HIV-1 LTR in JLAT10.6 cells. […] The ChIP assay was performed using a ChIP kit (ab500) (Abcam; Cambridge, Mass.). Briefly, an anti-rabbit IgG (Cell Signaling Technologies; Danvers, Mass.) was used as an isotype control. Actin was used as an internal control. Total chromatin (input) and the immunoprecipitated chromatin were used as templates and HIV-1 LTR was amplified by quantitative PCR using HIV-1 LTR (forward: 5-[…] […]-3, reverse: 5-TAG […] A-3) and actin primers. Using ChIP, we recovered 15% of the DNA from SDL148-treated cells using anti-acetylated histone H3 antibody compared to less than 5% recovery with DMSO-treated cells, and less than 1% from the IgG-negative controls. […] An alternative mechanism is modulation of lysines in Tat that impact its ability to interact with TAR of the HIV-1 LTR (37-39).

HDAC3 = HDAC3 (Homo sapiens, UniProt O15379); conditions: cited from earlier work
Chain of HDAC3 (O15379 whole entry): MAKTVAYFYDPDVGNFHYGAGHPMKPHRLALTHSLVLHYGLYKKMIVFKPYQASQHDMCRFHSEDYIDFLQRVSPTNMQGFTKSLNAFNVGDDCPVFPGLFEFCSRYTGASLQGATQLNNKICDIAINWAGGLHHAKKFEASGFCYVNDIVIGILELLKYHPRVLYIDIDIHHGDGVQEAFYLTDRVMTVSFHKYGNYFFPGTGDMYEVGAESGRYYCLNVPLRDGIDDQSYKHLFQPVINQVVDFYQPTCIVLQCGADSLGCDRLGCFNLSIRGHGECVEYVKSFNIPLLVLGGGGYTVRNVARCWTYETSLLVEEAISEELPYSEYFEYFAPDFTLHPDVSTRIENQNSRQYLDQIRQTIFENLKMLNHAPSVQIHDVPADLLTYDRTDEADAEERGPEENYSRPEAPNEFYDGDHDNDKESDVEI
Chain of HDAC3 (Q9Y618 395-489 partner limits assumed): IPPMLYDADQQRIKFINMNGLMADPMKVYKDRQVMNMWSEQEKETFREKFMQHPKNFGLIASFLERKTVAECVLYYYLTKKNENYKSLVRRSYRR

HIV Gag = test: Western blot for HIV Gag in JLAT10.6 cells; format: cell-based; conditions: 24 h
JLAT10.6 cells = test: HIV-1 latency reactivation screen in JLAT10.6 cells (GFP by FACS); format: cell-based
Procedure: For screening purposes, JLAT10.6 cells, a T-cell line that has been widely used for HIV-1 reactivation studies (32-34) were utilized. In this cell line, HIV-1Δenv from the NL4-3 backbone with GFP replacing the Nef gene is stably integrated into the genome and is expressed at undetectable levels. Upon HIV reactivation with latency reversing agents (LRAs), viral production leads to expression of GFP that was measured by fluorescent activation cell sorting (FACS) analysis using a Becton Dickinson FACS machine. Analysis was performed using BD […] PRO software (BD Biosciences; Franklin Lakes, N.J.). The stronger the HIV reactivation, the higher the percentage of GFP-positive cells observed. JLAT10.6 cells were incubated with HDAC inhibitors at concentrations of 1 and 10 μM for 24 hours, using TNF-α and SAHA (Vorinostat) as positive controls.

Question: Which results are given for `O=C(CCCCCCC(=O)Nc1ccccc1)NO` [SAHA, suberoylanilide hydroxamic acid]?
Answer: histone H3 acetylation (Class I HDAC): enhanced the acetylation of both histone H3 and tubulin; acetylation of tubulin (Class II HDAC): enhanced the acetylation of both histone H3 and tubulin

Question: Which results are given for largazole [SDL148]?
Answer: bioavailability [1]: excellent bioavailability; DNA recovered using anti-acetylated histone H3 antibody (HIV-1 LTR): 15%; potency against HDAC3 (HDAC3): picomolar range; expression of HIV Gag (HIV Gag): enhanced expression of HIV Gag; reactivation of HIV expression at 100 nM (JLAT10.6 cells; 100 nM): the only compound able to reactivate HIV expression significantly; potency in reactivating HIV from latency compared with vorinostat (JLAT10.6 cells; 1 and 10 μM, 24 hours): comparable or more potent than vorinostat; EC50 (JLAT10.6 cells; read-out: EC50 to reactivate HIV from latency): 0.15 µM
